Data set [1] relates to HCT116 colorectal carcinoma cell line. Nature of the data set: MTS antiproliferative assay, HCT116. It is filed as cell-based, human. The settings on record: 48 h incubation, MTS; read-out: Relative IC50, HCT116.
Procedure: (§3) Normal dermal human fibroblasts, colorectal carcinoma cell line HCT116 and ovarian carcinoma cell line A2780 were acquired from ATCC (Manassas, VA, USA). […] Fibroblasts and HCT116 cells were cultured in Dulbecco’s modified Eagle medium (DMEM, Thermo Fisher Scientific) and A2780 cell line was cultured on Roswell Park Memorial institute 1640 (RPMI-1640, Thermo Fisher Scientific). Both media were supplemented with 10% (v/v) fetal bovine serum (FBS, Thermo Fisher Scientific) and a mixture of 100 U/mL penicillin and 100 mg/mL streptomycin. The supplemented media are referred to from this point on as DMEM or RPMI for simplicity. […] All experiments underwent at 37 °C, 5% (v/v) CO2 and 99% (v/v) humidity in the dark.
(§4) Cells were seeded in a 96-well plate in a density of 7500 cells/well, and after 24 h was submitted to a concentration range between 0.1–50 µM of complexes JHOR10 and JHOR11. DMSO with a 0.1% (v/v) concentration was used as vector control and cisplatin was used as positive control in all replicates. After 48 h incubation, cellular viability was inferred with the Cell Titer 96® Aqueous One solution cell proliferation assay (Promega, Madison, WI, USA) according to the manufacturer’s instructions and procedures previously described [18, 40]. The absorbance of the produced Formazan was quantified with a Tecan microplate reader, Infinite M200 (Tecan, Mannedorf, Switzerland) and the analysis of the dose–response curves to determine the relative IC50 was performed with GraphPad Prism 8.2.1 software (GraphPad Software, La Jolla, CA, USA).
Data set [2] has as its system A2780 ovarian carcinoma cell line. Nature of the data set: MTS antiproliferative assay, A2780. It is filed as cell-based, human. The settings on record: 48 h incubation, MTS; read-out: Relative IC50, A2780. Background: Tetrazolium dyes change colour on reduction, which living cells bring about.
Procedure: as §3, §4
For data set [3], the system named is doxorubicin-resistant HCT116 (HCT116-Dox). The settings on record: read-out: Relative IC50, HCT116-Dox; 48 h incubation, MTS. As for the experimental part: (§1) The cytotoxic potential of the complexes was evaluated by assessing their viability using the 3-(4,5-dimethylthiazol-2-yl)-5-(3-carboxymethoxyphenyl)-2-(4-sulfophenyl)-2H tetrazolium, inner salt (MTS) colorimetric assay in three tumor cell lines—ovarian carcinoma, A2780, colorectal carcinoma, HCT116, and colorectal carcinoma resistant to doxorubicin, HCT116-Dox and in normal human primary dermal fibroblasts (Figure 1 and Figure S7).
(§2) Normal dermal human fibroblasts, colorectal carcinoma cell line HCT116 and ovarian carcinoma cell line A2780 were acquired from ATCC (Manassas, VA, USA). HCT116 cell lines resistant to doxorubicin (HCT116-Dox) were derived from the HCT116 cell line, as previously described. Fibroblasts and HCT116 cells were cultured in Dulbecco’s modified Eagle medium (DMEM, Thermo Fisher Scientific) and A2780 cell line was cultured on Roswell Park Memorial institute 1640 (RPMI-1640, Thermo Fisher Scientific). Both media were supplemented with 10% (v/v) fetal bovine serum (FBS, Thermo Fisher Scientific) and a mixture of 100 U/mL penicillin and […] streptomycin. The supplemented media are referred to from this point on as DMEM or RPMI for simplicity.

Data set [4] relates to normal human dermal fibroblasts. The settings on record: read-out: Relative IC50, Fibroblasts; 48 h incubation, MTS. The method, then: as §1, §2
The next data set relates to zebrafish embryos. Description: In vivo toxicity assessment using zebrafish embryos. The settings on record: zebrafish embryos exposed from 72 hpf, 96 h. As for the experimental part: The toxicity of the JHOR10 and JHOR11 compounds was assayed in zebrafish embryos. There was a NOEC (No Observed Effect Concentration) in the case of JHOR11 of 80 µM (Table 2). The NOEC is the concentration used for the xenotransplantation experiments in order not to affect the normal development of the embryos and being able, in parallel, to assay the effect of the compound over the injected cells. Apart from that, the mortality assayed in the toxicity assays supports the concentration obtained in the NOEC, with a low mortality of the embryos when they are incubated with JHOR11 (Figure 13 and Figure 14).
Wild-type zebrafish were housed in 30 L tanks within a water recirculation system under controlled physicochemical conditions: pH 7–7.5, temperature 26 ± 2 °C, conductivity 600 µS/cm and light/dark photoperiod of 14/10 h. The adult fish were fed Gemma Micro 300 (Skretting) twice a day. Fertilized eggs were collected after natural spawning and stored in Petri dishes for 48 h until being injected, or 72 h until being exposed to different concentrations of ruthenium compounds.
At 72 h post-fertilization (hpf), the embryos were exposed to increasing concentrations of two ruthenium compounds to determine toxicological estimates: LC50 with no observed effect concentration (NOEC) and lowest observed effect concentration (LOEC). The acute toxicity assessment of the compounds was performed following the standards of the OECD Test Guideline Program.
The embryos were individually transferred to 96-well plates containing 100 µL of each desired concentration. The plates were then placed in an incubator with a temperature of 26 °C and a photoperiod of 14 h of light and 10 h of darkness. The duration of the experiment was 96 h, and observations were made every 24 h recording the four lethal effects indicated by the OECD: embryo coagulation, absence of somite formation, absence of separation of the yolk tail and absence of heartbeat. All compounds were dissolved with dimethylsulfoxide (DMSO) with a final concentration of 1%. In each test, seven concentrations were analyzed for each compound, these being: JHOR10 (10, 20, 30, 40, 50, 55, 60 µM) and JHOR11 (50, 80, 100, 140, 200, 300, 400 µM).
For the evaluation of toxicity, the mortality data were analyzed by probit analysis with the ToxRat software (ToxRat Solutions. 2003. ToxRat®. Software for the statistical analysis of biotests. Alsdorf, Germany).

The nature of data set [5]: Stability in DMSO-d6-D2O solution by 1H NMR. The conditions noted are these: DMSO-d6-D2O 3:7 (v/v), 110 mM chloride. It is filed as physicochemical. The method, then:
To evaluate the stability of complexes in a cell culture medium, powdered complexes were first solubilized in DMSO and then immediately in DMEM, in order to guarantee that no more than 0.1% (v/v) DMSO was present in the medium. […] In addition, the stability of the complexes in solution was investigated by ^1H NMR spectroscopy. The ruthenium complexes were dissolved in DMSO-d6-D2O, in a 3:7 ratio (v/v) with a 110 mM chloride concentration, and the ^1H NMR spectra was recorded immediately and after 48 h. […] This observation is in agreement with the M–Cl aquation processes described for several metallic compounds, such as cisplatin [23]. After 48 h, the ^1H NMR spectrum of JHOR10 was unchanged.
The stability of complexes was evaluated in DMEM (Dulbecco’s modified Eagle’s medium). Powdered complexes JHOR10 and JHOR11 were solubilized in DMSO and then immediately diluted in DMEM without phenol red (Thermo Fisher Scientific, Waltham, MA, USA) to a final concentration of 100 µM, assuring that the final concentration of DMSO was not higher than 0.1% (v/v). The UV-visible spectrum was measured after an incubation at 37 °C for 24 or 48 h (DMEM) in a wavelength range between 260 and 800 nm, using a quartz cuvette with 1 cm path length. A total of 2 mg of each compound was dissolved in DMSOd6-D2O 3:7 (v/v) 110 mM chloride concentration (NaCl), and the ^1H NMR were recorded at 0 h and 48 h on a Bruker Avance III 400 MHz.

The next data set relates to A2780 cells. Description: Cell cycle analysis (PI staining). It is filed as cell-based, human. The conditions noted are these: A2780 synchronized with thymidine; IC50 of JHOR11 or 0.1 µM doxorubicin; 5-32 h, relative to DMSO. As for the experimental part: To understand if the complex also presents a cytostatic effect, the cell cycle of A2780 cells was analyzed by DNA staining with PI, after double synchronization with thymidine at the S phase.
The cell cycle analysis was performed by DNA staining with PI according to procedures previously described with few modifications. A2780 cells were seeded in 6-well plates in a cell density of 4 × 10^5 cells/well and the cell cycle was synchronized in the S-phase by double blocking with 2 mM thymidine. […] After 5 h, 9 h, 24 h or 32 h, cells were detached, fixed with 80% (v/v) ethanol, incubated with 50 mg/mL RNase A (NZYtech, Lisbon, Portugal) and stained with […] PI (Thermo Fisher Scientific). The fluorescence of each sample was analyzed in an Attune acoustic focusing cytometer and respective software (Thermo Fisher Scientific).

By IC50 is commonly meant the concentration that gives 50% inhibition. As a reminder, the LC50 is the concentration lethal to half of the exposed cells or organisms.

For the compound `N.N.[Cl][Pt][Cl]` [Cisplatin, reference compound], the IC50 stood at 15.6 ± 5.3 µM in data set [1] and 1.9 ± 0.2 µM in data set [2].

For `Cc1ccc(C(C)C)cc1.O=C1C(=O)c2cccnc2-c2ncccc21.O=S(=O)([O-])C(F)(F)F.[Cl][Ru+]` [JHOR10, [Ru{p-C6H4(Me)(iPr)}{(Dione)Cl][CF3SO3]], the IC50 was above 50 µM in data set [3], above 50 µM in data set [4], 25.7 ± 1.3 µM in data set [1] and 5.3 ± 0.3 µM in data set [2]. The compound further had an LC50 in the data set with zebrafish embryos of 29.8 µM. For the same compound, the “LOEC (Lowest Observed Effect Concentration)” value in the data set on zebrafish embryos amounted to 20.00 µM. Further, the “NOEC (No Observed Effect Concentration)” value with zebrafish embryos turned out to be 10.00 µM. For the same compound, the “stability in solution by 1H NMR after 48 h” value in data set [5] (48 h) is “unchanged”. In addition, the “stability in solution by 1H NMR at t = 0 h” value in data set [5] (t = 0 h) is listed as “new sets of resonances appeared”.

Regarding `COc1cccc2c1C(=O)c1c(O)c3c(c(O)c1C2=O)C[C@@](O)(C(=O)CO)C[C@@H]3O[C@H]1C[C@H](N)[C@H](O)[C@H](C)O1` [doxorubicin, reference compound], in the data set with A2780 cells, the cell cycle effect result is “cell cycle arrest at G2/M phase”.

The values above are taken from PMC9656482, “In Vitro and In Vivo Biological Activity of Ruthenium 1,10-Phenanthroline-5,6-dione Arene Complexes” (International Journal of Molecular Sciences, 2022).
